What was measured:
Format in all cases: cell-based
[1] = test system: Escherichia coli ATCC 11229; assay: A.O.A.C. sanitizer and germicidal detergent test; conditions: compositions at listed % w/v; hypochlorite 50 ppm; sanitizer criterion 99.999% in 30 s
Text: (§1) The bacterial cultures were purchased from the American Type Culture Collection (ATCC), (Bethesda, Md.). Escherichia coli and Staphylococcus aureus are used to represent both gram negative and gram-positive bacterial classes. This test is used by the US EPA for to determine compliance for a product to be used as a sanitizing agent. A product that reduces population density of both types of bacteria in 30 s by 99.999% satisfies the requirement as a sanitizing agent.

[2] = test system: Staphylococcus aureus ATCC 6538; assay: A.O.A.C. sanitizer and germicidal detergent test; conditions: compositions at listed % w/v; hypochlorite 50 ppm; sanitizer criterion 99.999% in 30 s
Text: as §1

[3] = test system: Aeromonas hydrophila ATCC 7965; assay: modified detergent and germicidal sanitizer test of the A.O.A.C.; conditions: A.h. 7965
Procedure: (§2) The […], Listeria monocytogenes, Aeromonas hydrophila, and Pseudomonas aeruginosa essentially by the modified detergent and germicidal sanitizer test of the A.O.A.C. The sanitizers were tested against both natural isolates and the antibiotic resistant strains of Listeria monocytogenes and Salmonella typhimurium. Each of the antibiotic resistant strains was used separately as well as in a composite strain prepared by mixing equal numbers of five different antibiotic resistant strains of Listeria monocytogenes or those of Salmonella typhimurium, respectively.

[4] = test system: Listeria monocytogenes ATCC 7644; assay: as above; conditions: L.m. 7644
Procedure: as §2

[5] = test system: Pseudomonas aeruginosa ATCC 10145; assay: as above; conditions: P.a. 10145
Procedure: (§3) The efficacy of the sanitizers of Examples I-III were further evaluated with 50 ppm of hypochlorite as a control against Salmonella typhimurium, Listeria monocytogenes, Aeromonas hydrophila, and Pseudomonas aeruginosa essentially by the modified detergent and germicidal sanitizer test of the A.O.A.C. The sanitizers were tested against both natural isolates and the antibiotic resistant strains of Listeria monocytogenes and Salmonella typhimurium. Each of the antibiotic resistant strains was used separately as well as in a composite strain prepared by mixing equal numbers of five different antibiotic resistant strains of Listeria monocytogenes or those of Salmonella typhimurium, respectively.

[6] = test system: Salmonella typhimurium ATCC 7823; assay: as above; set-up: key to Number of surviving bacteria/ml after 30 seconds: Too Numerous To Count; conditions: S.t. 7823
Procedure: as §3

[7] = 30 seconds contact, HOCL = 200 ppm (mark on the cfu cell beside)

OCl [Hypochlorite]
% Kill E. coli [1]: >99.999% | % Kill Staph. aureus [2]: >99.999% | % Kill after 30 seconds [3, 7]: >99.999% | % Kill after 60 seconds ([3]; 60 seconds contact): >99.999% | % Kill after 30 seconds [4, 7]: >99.999% | % Kill after 60 seconds ([4]; 60 seconds contact): >99.999% | % Kill after 30 seconds ([5]; 30 seconds contact): >99.999% | % Kill after 60 seconds ([5]; 60 seconds contact): >99.999% | Number of surviving bacteria/ml after 30 seconds ([6]; 30 seconds contact, HOCL = 50 ppm): T@, T@ | % Kill after 30 seconds ([6]; 30 seconds contact, HOCL = 50 ppm (mark on the cfu cell beside)): <99.999% | % Kill after 60 seconds ([6]; 60 seconds contact): >99.999%

— patent US20060062832A1, “Sanitizing wipes with microbicidal properties cross-reference to related applications” (priority 2004, published 2006)
